Experimental findings from patent US10730863B2, “Bridged bicyclic compounds as farnesoid X receptor modulators” (BRISTOL-MYERS SQUIBB COMPANY, priority 2017, dated 2020) are described below.

Usually EC50 stands for the concentration that produces a half-maximal response. Higher therefore signals lower potency in that assay.

FXR, sequence (Q96RI1 262-486): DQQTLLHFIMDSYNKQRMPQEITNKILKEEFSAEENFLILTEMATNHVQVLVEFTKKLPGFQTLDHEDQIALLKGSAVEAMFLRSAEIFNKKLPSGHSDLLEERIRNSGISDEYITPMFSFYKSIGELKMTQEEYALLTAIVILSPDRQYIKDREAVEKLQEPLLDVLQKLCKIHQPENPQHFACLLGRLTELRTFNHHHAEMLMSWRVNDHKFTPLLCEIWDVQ

The experiment concerns the target FXR (Homo sapiens (Human), UniProt Q96RI1). The experiment is described as follows: FXR EC50 (FXR agonist activity reported with each example). It is filed as cell-based.
Take `COC(=O)c1cc(OC(F)F)cc(-c2noc(C34CCC(/C=C/c5c(-c6c(Cl)cncc6Cl)noc5C5CC5)(CC3)CC4)n2)c1` [Example 443, (E)-methyl 3-(5-(4-(2-(5-cyclopropyl-3-(3,5-dichloropyridin-4-yl)isoxazol-4-yl)vinyl)bicyclo[2.2.2]octan-1-yl)-1,2,4-oxadiazol-3-yl)-5-(difluoromethoxy)benzoate]: the EC50 amounted to 0.049 µM.
In turn, `O=C(O)c1cccc(OCC23CCC(OCc4c(-c5c(Cl)cncc5Cl)noc4C4CC4)(CC2)CC3)n1` [Example 113, 6-((4-((5-cyclopropyl-3-(3,5-dichloropyridin-4-yl)isoxazol-4-yl)methoxy)bicyclo[2.2.2]octan-1-yl)methoxy)picolinic acid] returned an EC50 of 0.092 µM.
Molecule `COc1c(C(=O)O)cccc1-c1noc(C23CCC(OCc4c(-c5c(Cl)cncc5Cl)noc4C4CC4)(CC2)CC3)n1` [Example 237, 3-(5-(4-((5-cyclopropyl-3-(3,5-dichloropyridin-4-yl)isoxazol-4-yl)methoxy)bicyclo[2.2.2]octan-1-yl)-1,2,4-oxadiazol-3-yl)-2-methoxybenzoic acid] had an EC50 of 0.027 µM.
The figure for `O=C(O)c1ccc(C(O)C23CCC(OCc4c(-c5c(Cl)cccc5Cl)noc4C4CC4)(CC2)CC3)c(F)c1` (centres unmarked) [Example 125, 4-((4-((5-cyclopropyl-3-(2,6-dichlorophenyl)isoxazol-4-yl)methoxy)bicyclo[2.2.2]octan-1-yl)(hydroxy)methyl)-3-fluorobenzoic acid] is 1.6 µM; for `COc1cc(OCC23CCC(OCc4c(-c5c(Cl)cncc5Cl)noc4C4CC4)(CC2)CC3)ncc1C(=O)O` [Example 301, 6-((4-((5-cyclopropyl-3-(3,5-dichloropyridin-4-yl)isoxazol-4-yl)methoxy)bicyclo[2.2.2]octan-1-yl)methoxy)-4-methoxynicotinic acid] it is 0.042 µM; for `Cn1cc(C(=O)O)c2ccc(OCC34CCC(OCc5c(-c6ccccc6OC(F)(F)F)noc5C5CC5)(CC3)CC4)cc21` [Example 84] it is 0.32 µM.
`O=C(O)c1cc(OCC23CCC(OCc4c(-c5c(Cl)cncc5Cl)noc4C4CC4)(CC2)CC3)cc(C(F)(F)F)c1` [Example 103, 3-((4-((5-cyclopropyl-3-(3,5-dichloropyridin-4-yl)isoxazol-4-yl)methoxy)bicyclo[2.2.2]octan-1-yl)methoxy)-5-(trifluoromethyl)benzoic acid] registered an EC50 of 0.004 µM.
For the molecule `COc1c(F)cc(-c2noc(C34CCC(OCc5c(-c6c(Cl)cncc6Cl)noc5C5CC5)(CC3)CC4)n2)cc1C(=O)O` [Example 238, 5-(5-(4-((5-cyclopropyl-3-(3,5-dichloropyridin-4-yl)isoxazol-4-yl)methoxy)bicyclo[2.2.2]octan-1-yl)-1,2,4-oxadiazol-3-yl)-3-fluoro-2-methoxybenzoic acid], a half-maximal effect (EC50) was put at 0.021 µM. This EC50 lies about 5.2-fold higher than the previous one.
With `O=C(O)c1ccc(OCC23CCC(OCc4c(-c5c(Cl)cncc5Cl)noc4C4CC4)(CC2)CC3)c2ncccc12` [Example 302], the EC50 was 0.054 µM.
For `FC(F)(F)Oc1ccccc1-c1noc(C2CC2)c1COC12CCC(/C=C/c3cccc(-c4nnn[nH]4)c3)(CC1)CC2` [Example 8, (E)-4-(((4-(3-(1H-tetrazol-5-yl)styryl)bicyclo[2.2.2]octan-1-yl)oxy)methyl)-5-cyclopropyl-3-(2-(trifluoromethoxy)phenyl)isoxazole] the value was 0.38 µM; for `COc1ccc(-c2noc(C34CCC(OCc5c(-c6c(Cl)cncc6Cl)noc5C5CC5)(CC3)CC4)n2)cc1C(N)=O` [Example 240, 5-(5-(4-((5-cyclopropyl-3-(3,5-dichloropyridin-4-yl)isoxazol-4-yl)methoxy)bicyclo[2.2.2]octan-1-yl)-1,2,4-oxadiazol-3-yl)-2-methoxybenzamide], 0.17 µM; for `O=C(O)c1cc(-c2noc(C34CCC(OCc5c(-c6c(Cl)cncc6Cl)noc5C5CC5)(CC3)CC4)n2)ccn1` [Example 249, 4-(5-(4-((5-cyclopropyl-3-(3,5-dichloropyridin-4-yl)isoxazol-4-yl)methoxy)bicyclo[2.2.2]octan-1-yl)-1,2,4-oxadiazol-3-yl)picolinic acid], 0.24 µM.
As to `O=C(O)c1cc(C(F)(F)F)cc(C#CC23CCC(OCc4c(-c5c(Cl)cncc5Cl)noc4C4CC4)(CC2)CC3)n1` [Example 373], the EC50 came to 0.46 µM.
The figure for `Cn1nc(C(=O)O)c2ccc(C34CCC(OCc5c(-c6c(Cl)cncc6Cl)noc5C5CC5)(CC3)CC4)nc21` [Example 365] is 0.049 µM; for `COc1cc(C#CC23CCC(OCc4c(-c5c(Cl)cncc5Cl)noc4C4CC4)(CC2)CC3)cc(C(=O)O)c1` [Example 380] it is 0.024 µM.
For `O=C(O)c1cccc(-c2noc(C34CCC(OCc5c(-c6c(Cl)cncc6Cl)noc5C5CC5)(CC3)CO4)n2)c1` [Example 206] the value was 0.49 µM; for `COC(=O)c1ccc(-c2noc(C34CCC(OCc5c(-c6ccccc6OC(F)(F)F)noc5C(C)C)(CC3)CC4)n2)cc1` [Example 35], 2.4 µM.
`N#Cc1cnc2ccc(OCC34CCC(OCc5c(-c6c(Cl)cncc6Cl)noc5C5CC5)(CC3)CC4)nn12` [Example 462, 6-((4-((5-cyclopropyl-3-(3,5-dichloropyridin-4-yl)isoxazol-4-yl)methoxy)bicyclo[2.2.2]octan-1-yl)methoxy)imidazo[1,2-b]pyridazine-3-carbonitrile]: the EC50 came to 0.22 µM.
As to `O=C(O)c1cc(-c2noc(C34CCC(/C=C/c5c(-c6c(Cl)cncc6Cl)noc5C5CC5)(CC3)CO4)n2)cc(C(F)(F)F)c1` [Example 478, (E)-3-(5-(4-(2-(5-cyclopropyl-3-(3,5-dichloropyridin-4-yl)isoxazol-4-yl)vinyl)-2-oxabicyclo[2.2.2]octan-1-yl)-1,2,4-oxadiazol-3-yl)-5-(trifluoromethyl)benzoic acid], the EC50 is 0.12 µM.
In turn, `O=C(O)c1ccc(F)c(OCC23CCC(OCc4c(-c5c(Cl)cncc5Cl)noc4C4CC4)(CC2)CC3)c1` [Example 98, 3-((4-((5-cyclopropyl-3-(3,5-dichloropyridin-4-yl)isoxazol-4-yl)methoxy)bicyclo[2.2.2]octan-1-yl)methoxy)-4-fluorobenzoic acid] gave an EC50 of 0.022 µM.
The figure for `O=C(O)c1ccnc(OCC23CCC(OCc4c(-c5c(Cl)cccc5Cl)noc4C4CC4)(CC2)CC3)c1` [Example 111, 2-((4-((5-cyclopropyl-3-(2,6-dichlorophenyl)isoxazol-4-yl)methoxy)bicyclo[2.2.2]octan-1-yl)methoxy)isonicotinic acid] is 0.11 µM.
The molecule `O=C(O)c1cccc(OCC23CCC(OCc4c(-c5c(Cl)cncc5Cl)noc4C4CC4)(CC2)CC3)c1` [Example 91, 3-((4-((5-cyclopropyl-3-(3,5-dichloropyridin-4-yl)isoxazol-4-yl)methoxy)bicyclo[2.2.2]octan-1-yl)methoxy) benzoic acid] had an EC50 of 0.033 µM.
In the case of `O=C(O)C1CC1c1noc(CC23CCC(OCc4c(-c5c(Cl)cncc5Cl)noc4C4CC4)(CC2)CC3)n1` (centres unmarked) [Example 272, 2-(5-((4-((5-cyclopropyl-3-(3,5-dichloropyridin-4-yl)isoxazol-4-yl)methoxy)bicyclo[2.2.2]octan-1-yl)methyl)-1,2,4-oxadiazol-3-yl)cyclopropane-1-carboxylic acid], the EC50 came out at 0.4 µM.
For `NC(=O)C12CCC(COCc3c(-c4c(Cl)cccc4Cl)noc3C3CC3)(CC1)CC2` [Intermediate 162C, 4-(((5-cyclopropyl-3-(2,6-dichlorophenyl)isoxazol-4-yl)methoxy)methyl)bicyclo[2.2.2]octane-1-carboxamide] the value was 0.18 µM; for `O=C(O)c1cccc(CNC(=O)C23CCC(OCc4c(-c5c(Cl)cccc5Cl)noc4C4CC4)(CC2)CC3)c1` [Example 143, 3-((4-((5-cyclopropyl-3-(2,6-dichlorophenyl)isoxazol-4-yl)methoxy)bicyclo[2.2.2]octane-1-carboxamido)methyl)benzoic acid], 1.3 µM; for `CS(=O)(=O)c1cc(C(=O)O)nc2ccc(OCC34CCC(OCc5c(-c6c(Cl)cncc6Cl)noc5C5CC5)(CC3)CC4)cc12` [Example 332, 6-((4-((5-cyclopropyl-3-(3,5-dichloropyridin-4-yl)isoxazol-4-yl)methoxy)bicyclo[2.2.2]octan-1-yl)methoxy)-4-(methylsulfonyl)quinoline-2-carboxylic acid], 0.83 µM.
The figure for `N#Cc1cc(C(F)(F)F)cc(C23CCC(COCc4c(-c5c(Cl)cncc5Cl)noc4C4CC4)(CC2)CO3)c1` [Example 488, 3-(4-(((5-cyclopropyl-3-(3,5-dichloropyridin-4-yl)isoxazol-4-yl)methoxy)methyl)-2-oxabicyclo[2.2.2]octan-1-yl)-5-(trifluoromethyl)benzonitrile] is 2.4 µM; for `NC(=O)c1noc(C23CCC(OCc4c(-c5c(Cl)cccc5Cl)noc4C4CC4)(CC2)CC3)n1` [Example 74, 5-(4-((5-cyclopropyl-3-(2,6-dichlorophenyl)isoxazol-4-yl)methoxy)bicyclo[2.2.2]octan-1-yl)-1,2,4-oxadiazole-3-carboxamide] it is 0.52 µM.
The molecule `O=C(O)c1cc(OCC23CCC(OCc4c(-c5ccccc5C(F)(F)F)noc4C4CC4)(CC2)CC3)ccc1F` [Example 290] came in with an EC50 of 0.26 µM.
As to `Clc1cccc(Cl)c1-c1noc(C2CC2)c1COC12CCC(c3nc4ccc(-c5nnn[nH]5)cc4s3)(CC1)CC2` [Example 66, 4-(((4-(6-(1H-tetrazol-5-yl)benzo[d]thiazol-2-yl)bicyclo[2.2.2]octan-1-yl)oxy)methyl)-5-cyclopropyl-3-(2,6-dichlorophenyl)isoxazole], a half-maximal effect (EC50) was put at 0.39 µM.
The figure for `O=C(O)c1cncc(-c2noc(C34CCC(OCc5c(-c6ccccc6C(F)(F)F)noc5C5CC5)(CC3)CC4)n2)c1` [Example 11, 5-(5-(4-((5-cyclopropyl-3-(2-(trifluoromethyl)phenyl)isoxazol-4-yl)methoxy)bicyclo[2.2.2]octan-1-yl)-1,2,4-oxadiazol-3-yl)nicotinic acid] is 2.9 µM; for `O=C(O)c1cc(C2CC2)c2cc(OCC34CCC(OCc5c(-c6c(Cl)cncc6Cl)noc5C5CC5)(CC3)CC4)cc(F)c2n1` [Example 311, 4-cyclopropyl-6-((4-((5-cyclopropyl-3-(3,5-dichloropyridin-4-yl)isoxazol-4-yl)methoxy)bicyclo[2.2.2]octan-1-yl)methoxy)-8-fluoroquinoline-2-carboxylic acid] it is 0.009 µM.
